# “Also recorded” adds a separate entry of the source. Like-named read-outs stand apart in the source and are kept apart here. Marks after values point to notes of the source that are not given here.
# Legend:
# [1] = system: circulatory function of rats; conditions: rat, in vivo
# Protocol: First, animal models were established. […] At least one week after surgery, data were recorded.
# Finally, the pharmacological effects, adverse reactions, and behavioral manifestations of the rats were observed and recorded
# After data acquisition, the test was stopped.
# [2] = system: Sprague-Dawley rats; assay: Pharmacological effect and adverse reactions under the equivalent dose (2ED50), Group D compounds; type: in vivo
# Description: (§1) Evaluation index: onset time: from the completion of drug injection to the disappearance of forepaw righting reflex in rats; Duration of anesthesia: the time from the disappearance of rat forepaw righting reflex to the recovery of rat forepaw righting reflex; Recovery time of anesthesia: the time from the […] to complete recovery;
# [3] = system: H295R cell line; assay: Adrenocortical function in vitro test: secretion of cortisol and corticosterone, Group B compounds; type: cell-based; conditions: H295R cells; for EC50: 0.1-10000 nM, HPLC-MS/MS
# [4] = system: Sprague-Dawley rats; assay: Pharmacological effect and adverse reactions under the equivalent dose (2ED50), Group C compounds; type: in vivo
# Description: as §1
# [5] = system: SD rats
# Protocol: Experimental Methods: Adult male SD rats with body weight ranging from 250 g to 350 g were selected for continuous infusion test.
# Evaluation indexes: the time from the beginning of continuous infusion to the […] of sedation in rats; the time from the cessation of infusion to the restoration of the forepaw turning reflex after 1 hour of continuous infusion; the time from the cessation of infusion to the complete restoration of rats after 1 hour of continuous infusion.
# [6] = system: Sprague-Dawley rats
# Protocol: Adult male Sprague-Dawley rats with body weight ranging from 250 to 300 gm were selected for continuous infusion test. […] Time to recovery of righting reflex from stopping infusion, and time to fully awake from stopping infusion were recorded.
# [7] = system: Sprague-Dawley rats; type: in vivo; conditions: tail vein
# [8] = system: Sprague-Dawley rats; assay: animal or person; type: in vivo; conditions: rats
# Description: (§2) Evaluating indicator: The end point of anesthesia: the disappearance of forepaw righting reflex (lorr) was used as the end point of anesthesia; General anesthesia effect: the disappearance of forepaw righting reflex in rats lasting for 30 seconds is taken as the index of general anesthesia effect; Anesthesia recovery index: the recovery of rat forepaw righting reflex was used as the index of anesthesia recovery.
# [9] = system: Sprague-Dawley rats; assay: Continuous infusion at 2 times the MIR for 1 hour, Group B compounds; type: in vivo
# [10] = system: H295R cell line; assay: Adrenocortical function in vitro test: secretion of cortisol and corticosterone, Group A compounds; type: cell-based; conditions: H295 cells; for EC50: 0.1-10000 nM, HPLC-MS/MS
# [11] = system: Sprague-Dawley rats; assay: animal or person
# Protocol: (§3) Adult male Sprague-Dawley rats (250-300 g) were selected for the experiment. […] The anesthesia effects of the compounds were assessed in rats using a LORR assay and a period >30 s was considered as an indicator of general anesthesia.
# [12] = system: Sprague-Dawley rats; assay: animal or person; remark: listed apart in the source
# Protocol: as §3
# [13] = system: SD rats; remark: listed apart in the source
# Method in brief: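 Adult male SD rats (250–350 g) received continuous infusion. Read-outs: time from infusion start to […]; after 1 h infusion, time from stop to return of forepaw turning reflex and to full recovery.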
# [14] = system: Sprague-Dawley rats; assay: Pharmacological characteristics at equivalent doses (2ED50), Group A compounds; type: in vivo; conditions: 2ED50, tail vein
# [15] = system: Sprague-Dawley rats; assay: animal or person; type: in vivo; conditions: rats; remark: listed apart in the source
# Description: as §2, with “LORR” for “the disappearance of forepaw righting reflex (lorr)”
# [16] = system: Sprague-Dawley rats; type: in vivo; conditions: tail vein; remark: listed apart in the source
# [17] = 2ED50, tail vein, rats, n=8, unit s
# [18] = equivalent dose (2 × ED50), number of rats of n = 8
# [19] = read-out: EC50 (Corticosterone)
# [20] = equivalent dose (2ED50), number of rats of n = 8
# [21] = after 1 hour continuous infusion at 2 times the MIR, SD rats
# [22] = continuous infusion 2 x MIR 1 hour, rats affected/rats
# [23] = continuous tail vein infusion at 2 times the MIR, SD rats
# [24] = LORR, up and down method, tail vein, brackets = 95% confidence limit
# [25] = LORR in rats, tail vein, brackets = 95% confidence limit
structure (smiles),measurement,setting,value
"COC(=O)C1(OC(=O)c2cncn2[C@H](C)c2ccccc2)CC1 [CPMM, cyclopropyl methoxycarbonyl metamidate, reference compound]","inhibitory effect on the circulatory function (MAP, HR)",[1],almost no inhibitory effect on the circulatory function
same,Righting reflex duration,"[2]; 2ED50, tail vein, rats, n=8",2.71 ± 0.97 min
same,Sedation duration,"[2]; 2ED50, tail vein, rats, n=8",8.48 ± 2.58 min
same,Onset time,[2]; [17],<30 s
same,Adverse reaction: Convulsions,[2]; [18],0
same,"Adverse reaction: Cough, broken-winded",[2]; [18],0
same,Adverse reaction: Euphoria,[2]; [18],0
same,Adverse reaction: Four limbs rigidity,[2]; [18],2
same,"Adverse reaction: Slower breathing, Tetany convulsion",[2]; [18],0
same,"Adverse reaction: Systemic stiffness, Convulsions, Opisthotonus",[2]; [18],0
same,Adverse reaction: Tongue stretching,[2]; [18],4
same,Adverse reaction: Tremor,[2]; [18],2
same,Corticosterone as an indicator to determine the presence of inhibition,[3],1 (Mild inhibition (using CPMM as a control))
same,Cortisol as an indicator to determine the presence of inhibition,[3],1 (Mild inhibition (using CPMM as a control))
same,EC50,[3]; [19],> 100 nM
same,EC50,[3]; read-out: EC50 (Cortisol),> 10 nM
same,Righting reflex duration,"[4]; 2ED50, tail vein, rats, n=8",2.71 ± 0.97 min
same,Sedation duration,"[4]; 2ED50, tail vein, rats, n=8",8.48 ± 2.58 min
same,Onset time,[4]; [17],<30 s
same,Adverse reaction: Convulsions,[4]; [20],0
same,"Adverse reaction: Cough, broken-winded",[4]; [20],0
same,Adverse reaction: Euphoria,[4]; [20],0
same,Adverse reaction: Red urine,[4]; [20],8
same,"Adverse reaction: Slower breathing, Tetany convulsion",[4]; [20],3
same,"Adverse reaction: Systemic stiffness, Convulsions, Opisthotonus",[4]; [20],0
same,Adverse reaction: Tongue stretching,[4]; [20],4
same,Adverse reaction: Tremor,[4]; [20],5
same,Adverse reaction: the four limbs rigidity,[4]; [20],4
same,After the infusion is stopped: Righting reflex recovery time,[5]; [21],8 to 10 min
same,Recovery time after stopping infusion,[5]; [21],10 to 15 min
same,Types and incidence of adverse reactions: Hindlimb rigidity,[5]; [22],Hindlimb rigidity(4/6)
same,Types and incidence of adverse reactions: Red urine,[5]; [22],6/6
same,Types and incidence of adverse reactions: Tremor,[5]; [22],4/6
same,Sedation onset time,[5]; [23],<5 min
same,Recovery time after stopping infusion,"[6]; LORR maintained for 1 hour, 2 times the MIR",7 to 8 min
same,Onset time,"[6]; continuous infusion, 2 times the MIR",3 to 4 min
same,Types and incidence of adverse reactions,"[6]; continuous infusion, (animals affected/animals)","Convulsions(3/6),; also recorded: Tremor(5/6),; also recorded: Myoclonus(5/6),"
same,Minimal lethal dose,[7],20.6 mg/kg
same,ED50,[8]; [24],0.49(0.45-0.53)* mg/kg
same,Approximate therapeutic index,[8],42.0
same,Recovery time after stopping infusion,"[9]; after 1 hour continuous infusion at 2 times the MIR, rats",7 to 8 min
same,Types and incidence of adverse reactions: Convulsions,[9]; [22],"Convulsions (3/6), Tremor"
same,Types and incidence of adverse reactions: Myoclonus,[9]; [22],"(5/6), Myoclonus (5/6)"
same,Types and incidence of adverse reactions: Tremor,[9]; [22],"(5/6), Myoclonus (5/6)"
same,Onset time,"[9]; continuous tail vein infusion at 2 times the MIR, emulsion, rats",3 to 4 min
same,Corticosterone as an indicator to determine the presence of inhibition,[10],1 (Mild inhibition (using CPMM as a control))
same,Cortisol as an indicator to determine the presence of inhibition,[10],1 (Mild inhibition (using CPMM as a control))
same,EC50,[10]; [19],> 100 nM
same,EC50,[10]; read-out: EC50 (Cortisol),> 10 nM
same,ED50,[11]; [25],0.78(0.74-0.82)* mg/kg
same,Approximate therapeutic index,[11]; rats,>10
same,Minimal lethal dose,[11]; rats,>7.8 mg/kg
same,ED50,[12]; [25],0.78(0.74-0.82)* mg/kg
same,Approximate therapeutic index,[12]; rats,>10
same,Minimal lethal dose,[12]; rats,>7.8 mg/kg
same,After the infusion is stopped: Righting reflex recovery time,[13]; [21],8 to 10 min
same,Recovery time after stopping infusion,[13]; [21],10 to 15 min
same,Types and incidence of adverse reactions: Hindlimb rigidity,[13]; [22],Hindlimb rigidity(4/6)
same,Types and incidence of adverse reactions: Red urine,[13]; [22],6/6
same,Types and incidence of adverse reactions: Tremor,[13]; [22],4/6
same,Sedation onset time,[13]; [23],<5 min
same,Onset time,[14],0.26 ± 0.08 min
same,Righting reflex duration,[14],1.62 ± 0.63 min
same,ED50,[15]; [24],0.49(0.45-0.53)* mg/kg
same,Approximate therapeutic index,[15],42.0
same,Minimal lethal dose,[16],20.6 mg/kg

# — patent US12570612B2, “Substituted nitrogen heterocyclic compound and anesthetic effect thereof” (priority 2019, dated 2026)
